pIC50: −log10 of the molar value.
Experiments:
Type in all cases: cell-based
HepG2 parental = experiment: In vitro cell viability (CellTiter-Glo), HepG2 parental; settings: Homo sapiens, 96 hours, read-out: HepG2 viability
Description: (§1) HEK293 cells containing empty pCLPCx vector (HEK293 empty), HEK293 cells stably over-expression WFS1 (HEK293 WFS1), HepG2, and HepG2 cells where WFS1 was depleted via CRISPR/Cas9 (HepG2 WFS1 KO) cells were plated into 96-well black plates (Corning, product #3904) in 100 microliters of complete DMEM cell culture media [DMEM (Life Technologies, product #11960-051) media supplemented with 10% FBS (Hyclone, catalog #SH30071.03), antimycotic/antibiotic (Life Technologies, product #15240-062), and Glutamax (Life Technologies, product #35050-061)] at 1,000 (HEK293) or 5,000 (HepG2) cells per well. Cells were allowed to attach and grow overnight, after which compounds are added at various concentrations. Cell viability was assessed 96 hrs after compound addition with CellTiter-Glo reagent (Promega, catalog #G7570) according to manufacturer's protocol and measurement on a Pherastar luminescence plate reader (BMG Labtech).
To determine the effect of WFS1 depletion on compound mediated inhibition of cell viability, parental HepG2 cells and HepG2 cells where WFS1 was deleted by CRISPR/Cas9 were exposed to increasing concentrations of either Compound 136 or Compound 253 for 96 hours after which time viability was determined using Cell Titer Glo reagent (Promega). […] The IC50s for the viability of both the HepG2 parental and WFS1 knockout cells are summarized in Table 47: A<0.5 μM; 0.5 μM≤<2.0 μM; 2.0 μM≤C<10.0 μM; D≥[…].

HepG2 XBP1(u)-Luc cells = experiment: HepG2 XBP1 reporter assay; settings: Homo sapiens, 6 h
Procedure, shortened: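 Reporter cells are HepG2 stably carrying unspliced XBP1 fused to firefly luciferase, which becomes in-frame after IRE1alpha-mediated splicing. SteadyGlo luminescence was normalized to DMSO-treated cells for IC50 calculation.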

[1] = system: Hek293 WFS1 over-expressor; experiment: In vitro cell viability (CellTiter-Glo), Hek293 WFS1 over-expressor; settings: Homo sapiens, HEK293, Hek293 WFS1 over-expressing cells; read-out: Hek293 WFS1 viability
Description: WFS1 cDNA is amplified from clone RC202901 (Origene Technologies) with primers 5′-TCCGCGGCCCCAAGCTTATCGCCATGGACTCCAACACTGC-3′ (SEQ ID NO: 1), 5′-GATGGGCCCAGATCTCGAGTCAGGCCGCCGACAGGAATG-3′ (SEQ ID NO: 2) and cloned into a retroviral mammalian expression vector pCLPCX using HD Infusion (CLONTECH) at Hind3-Xhol sites using standard procedures. The resulting clone is identified as pCLPCX_WFS1.
HEK293 (ATCC, catalog #CRL-1573) cells are plated in 10 cm dishes (Corning, product #430167) into 10 mL of complete DMEM cell culture media [DMEM (Life Technologies, product #11960-051) media supplemented with 10% FBS (Hyclone, catalog #SH30071.03), antimycotic/antibiotic (Life Technologies, product #15240-062), and Glutamax (Life Technologies, product #35050-061)] at 3×10^6 cells per dish. Cells are allowed to attach and grow overnight at 37° C. in humidified 5% CO2. Cells are co-transfected with pVSV-G, pCMV-Gag/Pol and pCLPCX_WFS1 using Fugene 6 (Promega, catalog #E2691) according to manufacturer's protocol. Separately, cells are co-transfected with pVSV-G, pCMV-Gag/Pol and pCLPCX to produce control retrovirus. Cell culture media containing retrovirus (viral supernatant) is collected at 48 and 72 hours following transfection, filtered through a 0.4 uM filter, and stored at −80° C.
HEK293 cells are plated in 6 well plates (Corning, product #3516) in 2 mL of complete DMEM cell culture media at 1×10^5 cells well and allowed to attach and grow overnight at 37° C. in humidified 5% CO2. The following day, the media is replaced with viral supernatant to which 10 ug/ml of Polybrene® (Santa Cruz Biotech, catalog #sc-134220) is added. Viral supernatant is replaced 24 hours later with complete DMEM media. Transduced cells are selected in complete DMEM cell culture media containing 1 microgram/mL of puromycin (Life Technologies, catalog #A1113803).
as §1
The IC50s for the viability of both the Hek293 empty vector and WFS1 over-expressing cells are summarized in Table 47: A<0.06 μM; 0.06 μM≤B<0.6 μM; 0.6 μM≤C<3.0 μM; D≥3.0 μM.

SMILES | pIC50 (HepG2 parental) | pIC50 (HepG2 XBP1(u)-Luc cells) | pIC50 [1]
Cc1nc(NCc2cnn(Cc3ccc(C(F)(F)F)nc3C(C)O)c2)nc2c1NC(=O)[C@H](C)N2C (stereo partly drawn) [Compound 419, (7S)-2-(((1-((2-((S)-1-hydroxyethyl)-6-(trifluoromethyl)pyridin-3-yl)methyl)-1H-pyrazol-4-yl)methyl)amino)-4,7,8-trimethyl-7,8-dihydropteridin-6(5H)-one] | 5.00 to 5.70 | 5.00 to 5.70 | 6.22 to 7.22
Cc1nc(NCc2cn(Cc3ccc(C(F)(F)F)nc3)cn2)nc2c1NC(=O)[C@H](C)N2C [Compound 428, (S)-4,7,8-trimethyl-2-(((1-((6-(trifluoromethyl)pyridin-3-yl)methyl)-1H-imidazol-4-yl)methyl)amino)-7,8-dihydropteridin-6(5H)-one] | ≤ 5.00 | ≤ 5.00 | ≤ 5.52
Cc1nc(N[C@H]2C[C@H](Oc3ccc(F)nc3)C2)nc2c1NC(=O)[C@H](C)N2C [Compound 357, (7S)-2-((trans-3-((6-fluoropyridin-3-yl)oxy)cyclobutyl)amino)-4,7,8-trimethyl-7,8-dihydropteridin-6(5H)-one] | 5.00 to 5.70 | 5.00 to 5.70 | 6.22 to 7.22
Cc1nc(NCc2cnn([C@@H]3CCN(c4ccc(F)cc4)C3)c2)nc2c1NC(=O)[C@H](C)N2C [Compound 170, (7S)-2-(((1-((R)-1-(4-fluorophenyl)pyrrolidin-3-yl)-1H-pyrazol-4-yl)methyl)amino)-4,7,8-trimethyl-7,8-dihydropteridin-6(5H)-one] | > 6.30 | > 6.22 | > 7.22
Cc1nc(NCc2cnn(Cc3ccc(C(F)(F)F)nc3)c2)nc2c1NC(=O)[C@H](C(C)C)N2C [Compound 383, (7S)-7-isopropyl-4,8-dimethyl-2-(((1-((6-(trifluoromethyl)pyridin-3-yl)methyl)-1H-pyrazol-4-yl)methyl)amino)-7,8-dihydropteridin-6(5H)-one] | > 6.30 | 5.70 to 6.22 | > 7.22
Cc1cc(F)ncc1Cn1cc(CNc2nc(C)c3c(n2)N(C)[C@@H](C(C)C)C(=O)N3)cn1 [Compound 423, (7S)-2-(((1-((6-fluoro-4-methylpyridin-3-yl)methyl)-1H-pyrazol-4-yl)methyl)amino)-7-isopropyl-4,8-dimethyl-7,8-dihydropteridin-6(5H)-one] | > 6.30 | > 6.22 | > 7.22
Cc1nc(NCc2cnn(CC3CCC3)c2)nc2c1N(C)C(=O)[C@H](C)N2C [Compound 7, (7S)-2-(((1-(cyclobutylmethyl)-1H-pyrazol-4-yl)methyl)amino)-4,5,7,8-tetramethyl-7,8-dihydropteridin-6(5H)-one] | 5.00 to 5.70 | 5.70 to 6.22 | 6.22 to 7.22
Cc1nc(N(C)Cc2cnn(Cc3ccc(C(F)(F)F)nc3)c2)nc2c1NC(=O)[C@H](C)N2C [Compound 403, (7S)-4,7,8-trimethyl-2-(methyl((1-((6-(trifluoromethyl)pyridin-3-yl)methyl)-1H-pyrazol-4-yl)methyl)amino)-7,8-dihydropteridin-6(5H)-one] | ≤ 5.00 | ≤ 5.00 | ≤ 5.52
Cc1nc(NCc2cnn(Cc3cncc(F)c3)c2)nc2c1NC(=O)[C@H](C(C)C)N2C [Compound 415, (7S)-2-(((1-((5-fluoropyridin-3-yl)methyl)-1H-pyrazol-4-yl)methyl)amino)-7-isopropyl-4,8-dimethyl-7,8-dihydropteridin-6(5H)-one] | 5.70 to 6.30 | 5.70 to 6.22 | > 7.22
Cc1nn(C)cc1Cn1cc(CNc2nc(C)c3c(n2)N(C)[C@@H](C)C(=O)N3)cn1 [Compound 139, (7S)-2-(((1-((1,3-dimethyl-1H-pyrazol-4-yl)methyl)-1H-pyrazol-4-yl)methyl)amino)-4,7,8-trimethyl-7,8-dihydropteridin-6(5H)-one] | ≤ 5.00 | ≤ 5.00 | ≤ 5.52

From patent US20230312587A1, “PTERIDINONE COMPOUNDS AND USES THEREOF” (Vertex Pharmaceutical Incorporated, priority 2018, published 2023)
